Results as given in patent US20260297060A1, “COMPOUNDS FOR THE DEGRADATION OF MUTANT BRAF” (C4 THERAPEUTICS, INC., priority 2023, published 2026).
Where two headings read alike, the source gives them in different places.

What was measured:
A375-NRAS^Q61K cells = test: CTGlo Cell Viability Assay, A375-NRAS^Q61K (A375.11) cells, 96 hours; format: cell-based, human; details: A375.11 (A375-NRAS^Q61K) cells; for Emax / CTGlo A375.11 96 hours Emax: lowest % viability achieved
In short: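 Viability as CellTiter-Glo ATP luminescence after 96 h compound exposure at 37 °C; A375.11 (BRAF V600E/NRAS Q61K) cells at 250/well, top final concentration 10 μM in half-log steps. Signal was background-corrected and set relative to DMSO controls. A 4-parameter logistic fit gave GI50 (50% crossing) and Emax.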

BRAF V600E = molecular target: T1, BRAF V600E (Homo sapiens, UniProt P15056+Q96SW2, V600E); test: BRAF V600E HiBiT Degradation Assay; format: cell-based
T1 construct: knock-in of the HiBiT tag to the endogenous BRAF V600E locus; host or cells: A375.10 (A375 clonal line, CRISPR HiBiT knock-in at the endogenous BRAF V600E locus)
In short: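 Endogenous HiBiT knock-in on BRAF V600E in A375 cells (clone A375.10); 11-point half-log series, top 10 μM, 2, 6 or 24 h at 37° C. Lytic HiBiT luminescence, background-subtracted, normalized to DMSO; 4-parameter fit gives DC50, Emax (residual protein) and IP (inflection point).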

[1] = A375.10 cells, BRAF V600E, 2 hours, inflection point, read-out: HiBiT-Degradation A375.10 BRAF 2 hours IP
[2] = A375.10 cells, BRAF V600E, 2 hours, read-out: HiBiT-Degradation A375.10 BRAF 2 hours DC50
[3] = A375.10 cells, BRAF V600E, 2 hours, residual protein remaining, read-out: HiBiT-Degradation A375.10 BRAF 2 hours Emax
[4] = read-out: HiBiT-Degradation A375.10 BRAF 2 hours Emax, A375.10 cells, BRAF V600E, 2 hours, residual protein remaining
[5] = A375.10 cells, BRAF V600E, 2 hours, residual protein remaining

T1 sequence (P15056 whole entry V600E): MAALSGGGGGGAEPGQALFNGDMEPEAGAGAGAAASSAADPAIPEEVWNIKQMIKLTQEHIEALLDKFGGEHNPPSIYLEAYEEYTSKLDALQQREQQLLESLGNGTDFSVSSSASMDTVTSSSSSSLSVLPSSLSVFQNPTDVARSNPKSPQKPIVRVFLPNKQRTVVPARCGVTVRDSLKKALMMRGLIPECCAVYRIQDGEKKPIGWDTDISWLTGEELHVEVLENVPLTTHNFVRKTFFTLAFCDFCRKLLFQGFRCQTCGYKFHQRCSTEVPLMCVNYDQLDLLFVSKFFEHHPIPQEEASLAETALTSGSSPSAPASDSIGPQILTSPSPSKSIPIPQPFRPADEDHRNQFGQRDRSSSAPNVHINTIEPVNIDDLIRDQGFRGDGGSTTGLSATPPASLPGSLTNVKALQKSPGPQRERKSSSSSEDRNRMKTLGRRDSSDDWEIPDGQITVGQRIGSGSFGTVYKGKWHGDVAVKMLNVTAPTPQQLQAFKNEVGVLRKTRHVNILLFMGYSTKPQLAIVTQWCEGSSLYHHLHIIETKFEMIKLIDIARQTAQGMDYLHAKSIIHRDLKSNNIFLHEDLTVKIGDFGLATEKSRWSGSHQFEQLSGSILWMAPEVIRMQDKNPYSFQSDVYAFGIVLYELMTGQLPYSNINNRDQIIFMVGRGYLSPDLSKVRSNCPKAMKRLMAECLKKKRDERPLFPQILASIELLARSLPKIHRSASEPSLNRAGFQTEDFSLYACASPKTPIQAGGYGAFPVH
T1 sequence (Q96SW2 whole entry): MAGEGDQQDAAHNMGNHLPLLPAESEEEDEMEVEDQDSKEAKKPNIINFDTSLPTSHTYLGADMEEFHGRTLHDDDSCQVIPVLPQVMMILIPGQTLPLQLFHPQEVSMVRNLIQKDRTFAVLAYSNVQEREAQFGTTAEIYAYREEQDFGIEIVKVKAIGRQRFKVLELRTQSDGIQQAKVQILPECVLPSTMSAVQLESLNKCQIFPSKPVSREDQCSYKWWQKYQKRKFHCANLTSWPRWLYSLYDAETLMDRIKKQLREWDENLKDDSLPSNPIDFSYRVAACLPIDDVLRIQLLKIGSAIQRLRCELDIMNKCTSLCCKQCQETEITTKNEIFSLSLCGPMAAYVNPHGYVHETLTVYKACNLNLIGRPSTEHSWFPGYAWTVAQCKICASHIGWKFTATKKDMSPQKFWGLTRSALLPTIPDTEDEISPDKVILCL
T1 sequence (Q16531 whole entry partner): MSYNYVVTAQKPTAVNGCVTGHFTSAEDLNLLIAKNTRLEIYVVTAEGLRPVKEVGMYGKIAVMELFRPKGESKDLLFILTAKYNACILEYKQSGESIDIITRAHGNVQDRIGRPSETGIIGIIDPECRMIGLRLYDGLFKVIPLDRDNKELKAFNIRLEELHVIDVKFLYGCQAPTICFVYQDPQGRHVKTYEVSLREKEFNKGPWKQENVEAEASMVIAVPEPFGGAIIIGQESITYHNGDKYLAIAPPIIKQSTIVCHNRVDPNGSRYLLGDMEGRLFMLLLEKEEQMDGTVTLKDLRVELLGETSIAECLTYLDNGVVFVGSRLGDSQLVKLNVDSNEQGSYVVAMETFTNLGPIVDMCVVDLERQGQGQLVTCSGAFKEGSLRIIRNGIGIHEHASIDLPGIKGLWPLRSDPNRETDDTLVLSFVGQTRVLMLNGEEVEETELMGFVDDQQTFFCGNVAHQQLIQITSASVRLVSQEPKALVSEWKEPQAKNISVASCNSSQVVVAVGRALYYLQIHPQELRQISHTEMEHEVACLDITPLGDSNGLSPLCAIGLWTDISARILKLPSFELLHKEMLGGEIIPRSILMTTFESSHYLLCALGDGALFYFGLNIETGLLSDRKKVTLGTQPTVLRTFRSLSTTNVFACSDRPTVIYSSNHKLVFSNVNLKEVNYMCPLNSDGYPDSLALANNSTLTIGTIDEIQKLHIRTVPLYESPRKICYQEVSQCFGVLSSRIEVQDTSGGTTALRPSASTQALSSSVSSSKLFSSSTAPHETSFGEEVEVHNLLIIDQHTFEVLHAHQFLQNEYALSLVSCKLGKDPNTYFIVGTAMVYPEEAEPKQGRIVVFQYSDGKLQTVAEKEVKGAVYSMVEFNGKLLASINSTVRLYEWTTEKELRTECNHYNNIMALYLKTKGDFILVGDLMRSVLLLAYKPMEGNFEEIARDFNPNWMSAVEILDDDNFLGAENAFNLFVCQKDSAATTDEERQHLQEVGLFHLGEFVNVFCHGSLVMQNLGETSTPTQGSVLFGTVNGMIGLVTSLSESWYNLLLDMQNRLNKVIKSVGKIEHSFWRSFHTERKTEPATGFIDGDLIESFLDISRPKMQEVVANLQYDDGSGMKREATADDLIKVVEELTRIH

| Structure (SMILES) | GI50 (A375-NRAS^Q61K cells; Homo sapiens, 96 h) [µM] | Emax (A375-NRAS^Q61K cells; Homo sapiens, 96 h) [%] | DC50 (BRAF V600E; [1]) [µM] | DC50 (BRAF V600E; [2]) [µM] | Emax (BRAF V600E; [3]) [%] | Emax (BRAF V600E; [4]) [%] | CTGlo A375.11 96 hours Emax (A375-NRAS^Q61K cells) | GI50 (A375-NRAS^Q61K cells) [µM] | HiBiT-Degradation A375.10 BRAF 2 hours Emax (BRAF V600E; [5]) | HiBiT-Degradation A375.10 BRAF 2 hours Emax (BRAF V600E) |
| --- | --- | --- | --- | --- | --- | --- | --- | --- | --- | --- |
| CCN(C)S(=O)(=O)Nc1ccc(F)c(Oc2ccc3ncc(CC4CCN(C5CCC(c6cc7c(cc6F)c(N6CCC(=O)NC6=O)nn7C)CC5)CC4)nc3c2)c1C#N (single isomer, unassigned) [Compound 149, 7-[2-cyano-3-[[ethyl(methyl)sulfamoyl]amino]-6-fluoro-phenoxy]-2-[[1-[4-[3-(2,4-dioxohexahydropyrimidin-1-yl)-5-fluoro-1-methyl-indazol-6-yl]cyclohexyl]-4-piperidyl]methyl]quinoxaline] | > 10 | 50 to 90 | < 1 | < 1 | < 50 |  |  |  |  |  |
| CCN(C)S(=O)(=O)Nc1ccc(F)c(Oc2ccc3ncn(CCC4CCN(C5CCC(c6ccc(NC7CCC(=O)NC7=O)cc6F)CC5)CC4)c(=O)c3c2)c1C#N (single isomer, unassigned) [Compound 153, 6-[2-cyano-3-[[ethyl(methyl)sulfamoyl]amino]-6-fluoro-phenoxy]-3-[2-[1-[4-[4-[(2,6-dioxo-3-piperidyl)amino]-2-fluoro-phenyl]cyclohexyl]-4-piperidyl]ethyl]-4-oxo-quinazoline] | > 10 | 50 to 90 | < 1 | 1 to 10 | 50 to 90 |  |  |  |  |  |
| CCN(C)S(=O)(=O)Nc1ccc(F)c(Oc2ccc3ncn([C@H]4COC5(CCC(N6C7COCC6CC(c6cc8c(cc6F)c(N6CCC(=O)NC6=O)nn8C)C7)CC5)C4)c(=O)c3c2)c1C#N (single isomer, unassigned) [Compound 155] | > 10 | 50 to 90 | < 1 | < 1 | 50 to 90 |  |  |  |  |  |
| CCN(C)S(=O)(=O)Nc1ccc(F)c(Oc2ccc3ncc([C@@H]4COC5(CCN(C6CCC(c7cc8c(cc7F)c(N7CCC(=O)NC7=O)nn8C)CC6F)CC5)C4)nc3c2)c1C#N (single isomer, unassigned) [Compound 163] | 1 to 10 | 50 to 90 | < 1 | < 1 |  | < 50 |  |  |  |  |
| CCN(C)S(=O)(=O)Nc1ccc(F)c(Oc2ccc3ncn(C4CC5(CCN(C6CCC(c7ccc(NC8CCC(=O)NC8=O)cc7F)CC6)CC5)C4)c(=O)c3c2)c1F (single isomer, unassigned) [Compound 166, 3-[7-[4-[4-[(2,6-dioxo-3-piperidyl)amino]-2-fluoro-phenyl]cyclohexyl]-7-azaspiro[3.5]nonan-2-yl]-6-[3-[[ethyl(methyl)sulfamoyl]amino]-2,6-difluoro-phenoxy]-4-oxo-quinazoline] | 1 to 10 |  | < 1 | > 10 | 50 to 90 |  | * (>=90%) |  |  |  |
| CCN(C)S(=O)(=O)Nc1ccc(F)c(Oc2ccc3ncn(C4CC5(CCN(C6CCC(c7ccc(NC8CCC(=O)NC8=O)cc7F)CC6)CC5)C4)c(=O)c3c2)c1F (single isomer, unassigned) [Compound 167, 3-[7-[4-[4-[(2,6-dioxo-3-piperidyl)amino]-2-fluoro-phenyl]cyclohexyl]-7-azaspiro[3.5]nonan-2-yl]-6-[3-[[ethyl(methyl)sulfamoyl]amino]-2,6-difluoro-phenoxy]-4-oxo-quinazoline] |  |  | < 1 | > 10 |  |  | ** (<90% and >50%) | 1 to 10 | ** (<90% and >50%) |  |
| CN(CCO)S(=O)(=O)Nc1ccc(F)c(Oc2ccc3ncc([C@H]4COC5(CCN(C6CCC(c7cc8c(cc7F)c(N7CCC(=O)NC7=O)nn8C)CC6F)CC5)C4)nc3c2)c1C#N (single isomer, unassigned) [Compound 170] | 1 to 10 | 50 to 90 | < 1 | > 10 | 50 to 90 |  |  |  |  |  |
| CN(CCO)S(=O)(=O)Nc1ccc(F)c(Oc2ccc3ncc([C@@H]4COC5(CCN(C6CCC(c7cc8c(cc7F)c(N7CCC(=O)NC7=O)nn8C)CC6F)CC5)C4)nc3c2)c1C#N (single isomer, unassigned) [Compound 172] | 1 to 10 | 50 to 90 | < 1 | > 10 | 50 to 90 |  |  |  |  |  |
| CN(CCO)S(=O)(=O)Nc1ccc(F)c(Oc2ccc3ncc([C@@H]4COC5(CCN(C6CCC(c7cc8c(cc7F)c(N7CCC(=O)NC7=O)nn8C)CC6)CC5)C4)nc3c2)c1C#N (single isomer, unassigned) [Compound 174] | < 1 | 50 to 90 | < 1 | < 1 | < 50 |  |  |  |  |  |
| CN(CCO)S(=O)(=O)Nc1ccc(F)c(Oc2ccc3ncc([C@H]4COC5(CCN(C6CCC(c7cc8c(cc7F)c(N7CCC(=O)NC7=O)nn8C)CC6)CC5)C4)nc3c2)c1C#N (single isomer, unassigned) [Compound 176] | < 1 | 50 to 90 | < 1 | < 1 | < 50 |  |  |  |  |  |
| CCN(C)S(=O)(=O)Nc1ccc(F)c(Oc2ccc3ncn(C4CC5(CCN(C6CCC(c7cc8c(cc7F)c(N7CCC(=O)NC7=O)nn8C)CC6)CC5)C4)c(=O)c3c2)c1F (single isomer, unassigned) [Compound 179, 3-[7-[4-[3-(2,4-dioxohexahydropyrimidin-1-yl)-5-fluoro-1-methyl-indazol-6-yl]cyclohexyl]-7-azaspiro[3.5]nonan-2-yl]-6-[3-[[ethyl(methyl)sulfamoyl]amino]-2,6-difluoro-phenoxy]-4-oxo-quinazoline] |  |  | < 1 | < 1 |  |  | ** (<90% and >50%) | 1 to 10 |  | ** (<90% and >50%) |
| CCN(C)S(=O)(=O)Nc1ccc(F)c(Oc2ccc3ncc(C4CC5(CCN(C6CCC(c7cc8c(cc7F)c(N7CCC(=O)NC7=O)nn8C)CC6)CC5)C4)nc3c2)c1C#N (single isomer, unassigned) [Compound 181, 7-[2-cyano-3-[[ethyl(methyl)sulfamoyl]amino]-6-fluoro-phenoxy]-2-[7-[4-[3-(2,4-dioxohexahydropyrimidin-1-yl)-5-fluoro-1-methyl-indazol-6-yl]cyclohexyl]-7-azaspiro[3.5]nonan-2-yl]quinoxaline] |  |  | < 1 | < 1 |  |  | *** (<=50%) | < 1 |  | *** (<=50%) |
| CCN(C)S(=O)(=O)Nc1ccc(F)c(C(=O)c2ccc3ncn(C4CC5(CCN(C6CCC(c7cc8c(cc7F)c(N7CCC(=O)NC7=O)nn8C)CC6)CC5)C4)c(=O)c3c2)c1F (single isomer, unassigned) [Compound 183, 3-[7-[4-[3-(2,4-dioxohexahydropyrimidin-1-yl)-5-fluoro-1-methyl-indazol-6-yl]cyclohexyl]-7-azaspiro[3.5]nonan-2-yl]-6-[3-[[ethyl(methyl)sulfamoyl]amino]-2,6-difluoro-benzoyl]-4-oxo-quinazoline] |  |  | < 1 | < 1 |  |  | ** (<90% and >50%) | 1 to 10 | *** (<=50%) |  |
| CCN(C)S(=O)(=O)Nc1ccc(F)c(Oc2ccc3ncn(C4CC5(CCN(C6CCC(c7cc8c(cc7F)c(N7CCC(=O)NC7=O)nn8C)CC6F)CC5)C4)c(=O)c3c2)c1F (single isomer, unassigned) [Compound 185] |  |  | < 1 | > 10 |  |  | ** (<90% and >50%) | > 10 | ** (<90% and >50%) |  |
| CCN(C)S(=O)(=O)Nc1ccc(F)c(Oc2ccc3ncn([C@H]4COC5(CCC(N6CCC(c7ccc(NC8CCC(=O)NC8=O)cc7F)C(F)(F)C6)CC5)C4)c(=O)c3c2)c1C#N (single isomer, unassigned) [Compound 190] | 1 to 10 | < 50 | < 1 | < 1 | < 50 |  |  |  |  |  |
| CCN(C)S(=O)(=O)Nc1ccc(F)c(Oc2ccc3ncn([C@H]4COC5(CCC(N6CC7(CN(c8ccc(NC9CCC(=O)NC9=O)cc8F)C7)C6)CC5)C4)c(=O)c3c2)c1C#N (single isomer, unassigned) [Compound 191] |  | < 50 | < 1 | < 1 |  | < 50 |  | < 1 |  |  |
| CCN(C)S(=O)(=O)Nc1ccc(F)c(Oc2ccc3ncn([C@H]4COC5(CCC(N6CC7(CN(c8ccc(NC9CCC(=O)NC9=O)cc8F)C7)C6)CC5)C4)c(=O)c3c2)c1C#N (single isomer, unassigned) [Compound 192] |  |  | < 1 | < 1 |  |  | *** (<=50%) | > 10 |  | ** (<90% and >50%) |
